Measured values taken from publication PMC6150365, “Simultaneous Determination of Seven Components in Rat Plasma by the UPLC-MS/MS Method and Application of Pharmacokinetic Studies to SimiaoYong’an Decoction” (Molecules : A Journal of Synthetic Chemistry and Natural …, 2017).

Assay: in vivo
Settings: male, Sprague-Dawley, rat, po; for MRT last: MRT(0–t); for MRT inf: MRT(0–∞); for half-life: t1/2
Description: Pieces of LJ, SN, AS and GU were weighed according to the proportion of 3:3:2:1 with appropriate amounts. The mixed pieces were crushed and decocted two times (60 min each time) with water (1:10 w/v) after being soaked for 60 min. The decoctions were then combined and condensed to the concentration of 0.5 g/mL, after which 95% ethanol was slowly added to the concentrate until a final ethanol concentration of 70% was reached. The SYD solution was set at room temperature overnight and then was filtered. The solvent was recovered, and the residue was dried under reduced pressure. A certain amount of the water extract of SYD was weighed and then dissolved with purified water for intragastric (oral) administration solution. The single herbs and different combination groups such as LJ, SN, AS, GU, LJ + SN, LJ + AS, LJ + GU, SN + AS, SN + GU, AS + GU, LJ + SN + AS, LJ + SN + GU, LJ + AS + GU and SN + AS + GU were prepared according to the procedure of SYD.
Male Sprague-Dawley (SD) rats (body weight 250 ± 10 g) were supplied by the SPF (Beijing) Biotechnology Co., Ltd. (Certificate No.: SCXK 2016-0002, Beijing, China). The animals were maintained in controlled conditions (temperature 20–25 °C, relative humidity 55–60% and 12-h light/12-h dark cycle) with free access to standard laboratory food and water for seven days of acclimation and then fasted for 12 h before each experiment but allowed to drink freely during this time.
Ninety male SD rats were randomly separated into 15 groups and administered a dosage of extract via gastric gavage once per day; detailed information about the oral daily dose of SYD extract and the corresponding single and combined TCMs (LJ, SN, AS, GU, LJ + SN, LJ + AS, LJ + GU, SN + AS, SN + GU, AS + GU, LJ + SN + AS, LJ + SN + GU, LJ + AS + GU, SN + AS + GU and SYD) is listed in Table 4.
Each plasma sample (200 μL) with 50 μL IS solution added was spiked into 100 μL 1% formic acid distilled water solution and then vortexed for 1 min. Protein was precipitated by adding 600 μL of methanol to the mixture. After being vortexed and sonicated, the samples were centrifuged at 25,000 r/min, 4 °C for 10 min. The supernatant of each sample was transferred to a new 2-mL centrifuge tube and evaporated to dryness by N2 at 40 °C. Finally, the residue was dissolved in 100 μL methanol–water (1:1, v/v), followed by centrifugation at 30,000 r/min, 4 °C for 10 min, and 10-μL supernatant aliquots were injected into the UPLC-MS/MS system for analysis.
The SYD was decomposed into 15 groups of compatibility combinations (LJ, SN, AS, GU, LJ + SN, LJ + AS, LJ + GU, SN + AS, SN + GU, AS + GU, LJ + SN + AS, LJ + SN + GU, LJ + AS + GU, SN + AS + GU and SYD). The 15 combinations were weighed according to the proportion of 3:3:2:1 with appropriate amounts and prepared by the method described in “Section 3.2”. Six male SD rats (body weight 250 ± 10 g) of each compatibility group were used in the pharmacokinetic study. After 12-h fast, rats of the different groups were orally administered the respective extract dissolved in saline (Table 4). Venous blood (0.45 mL) was obtained from the orbit vein and collected in heparin-pretreated polypropylene centrifuge tubes at 0.083 h, 0.17 h, 0.25 h, 0.50 h, 0.75 h, 1.0 h, 1.5 h, 2.0 h, 3.0 h, 4.0 h, 6.0 h, 8.0, 12 h and 24 h post-dose. The plasma was separated by centrifugation at 8000 r/min for 10 min and then stored at −20 °C until analysis. The amount of each analyte in the plasma was estimated by UPLC-MS/MS analysis as described in Section 3.5.
Non-compartmental methods using Phoenix WinNonlin 7.0 software provided by the Beijing University of Chinese Medicine were used to analyze plasma concentration versus time profiles and to estimate the following pharmacokinetic parameters: terminal elimination half-lives (t1/2), area under the plasma concentration versus time curve from zero to last sampling time (AUC), and the mean residence time (MRT).

In the case of `C=C[C@H]1[C@H](O[C@@H]2O[C@H](CO)[C@@H](O)[C@H](O)[C@H]2O)OC=C2C(=O)OCC[C@H]21` [Sweroside, sweroside], the AUC(0-t) (2.15 g/kg) is reported as 6900 ± 2660 ng·h/mL, the AUC(0-inf) (2.15 g/kg) is reported as 7860 ± 4080 ng·h/mL and the Cmax (2.15 g/kg) is reported as 2920 ± 1770 ng/mL. For the same molecule, the MRT last (2.15 g/kg) was 4.46 ± 1.2 h, the MRT inf (2.15 g/kg) was 7.5 ± 5.21 h and the Tmax (2.15 g/kg) was 0.96 ± 0.58 h. The half-life (2.15 g/kg) was 7.39 ± 6.33 h, the AUC(0-t) (8.25 g/kg) was 4490 ± 280 ng·h/mL and the AUC(0-inf) (8.25 g/kg) was 4530 ± 290 ng·h/mL. For the same molecule, the Cmax (8.25 g/kg) was 1970 ± 700 ng/mL, the MRT last (8.25 g/kg) was 3.3 ± 0.39 h and the MRT inf (8.25 g/kg) was 3.53 ± 0.29 h. For the same molecule, the Tmax (8.25 g/kg) was 1.33 ± 0.49 h and the half-life (8.25 g/kg) was 4.14 ± 1.46 h.
